For series [1], the species on record is Homo sapiens. Nature of the series: cells.
The nature of another series: physchem. As to conditions: octanol/water; call rule not given here.
The species entered for series [2] is Homo sapiens. Briefly: Inhibitory activity against Leukotriene (LTB4) biosynthesis in isolated human polymorphonuclear cells (PMNs); not active. Format: functional.

Description for physchem: Partition coefficient (logP)

The IC50 is the midpoint of a concentration-inhibition curve. Low readings indicate inhibition by little substance, high ones a need for much substance. The logP is a log measure of how a compound divides between an organic and an aqueous phase. Read a low logP as lower lipophilicity. Compound `COC(=O)c1ccc(OCCCOc2cc3c(cc2O)CCO3)cc1` yielded a 50% inhibitory concentration (IC50) in the series listed under Homo sapiens [1] of 71 nM. Also, in the series “physchem”, the logP was 3.7. Taken in the same sequence, the figures for `Oc1cc2c(cc1CCCOc1ccccc1)OCC2` were 57 nM and 4.3. On to `Cc1c(O)c(CCCSc2ccccc2)cc2c1CCO2`, for which, in the series listed under Homo sapiens [1], the midpoint of inhibition, the IC50, lay at 19 nM. The logP in the series “physchem” came to 5.9. As to `OCCc1cccc(OCCCc2cc3c(cc2O)CCO3)c1`, it took 60 nM to reach half-maximal inhibition in the series filed under Homo sapiens [1] (IC50). The logP in “physchem” was 3.5.

`CC(C)c1cc2c(cc1O)CCO2`: in the series listed under Homo sapiens [1], the IC50 stood at 300 nM. In addition, the logP in the series “physchem” worked out at 3.3. In the series listed under Homo sapiens [1], `Oc1cc2c(cc1SCCCc1ccccc1)OCC2` showed an IC50 of 28 nM. The same compound came in with a logP in the series “physchem” of 4.9. On to `Oc1cc2c(cc1CCCOc1ccc(F)cc1)OCC2`, for which, in the series filed under Homo sapiens [1], half-maximal inhibition (IC50) required 28 nM. In the series “physchem”, the logP was 4.5.

Compound `CCCOc1cc2c(cc1O)CCO2` yielded an IC50 in the series listed under Homo sapiens [1] of 470 nM. The compound also had a logP in the series “physchem” of 2.6. In the case of `Oc1ccc2c(c1CCCSCc1cccnc1)CCO2`, the IC50 in the series filed under Homo sapiens [1] was determined as 2000 nM. Further, the logP in “physchem” was determined as 3.3. With `Oc1ccc2c(c1CCCNc1ccccc1)CCO2`, in the series listed under Homo sapiens [1], 1400 nM corresponded to half-maximal inhibition (IC50). In the series “physchem”, the logP stood at 3.8. Compound `CCCc1c(O)ccc2c1CCO2` yielded a 50% inhibitory concentration (IC50) in the series listed under Homo sapiens [1] of 1000 nM. In the series “physchem”, this compound yielded a logP of 3.4. For `Oc1cc2c(cc1Sc1cccnc1)OCC2`, in that order: 1200 nM and 2.8. Taken in the same sequence, the figures for `Oc1ccc2c(c1CCCOc1ccccc1)CCO2` were 290 nM and 4.3. Taken in the same sequence, the figures for `CCCc1cc2c(c(C(C)(C)C)c1O)CCO2` were 430 nM and 5.4.

`CCCCOc1cc2c(cc1O)CCO2` gave an IC50 in the series filed under Homo sapiens [1] of 180 nM. The logP in the series “physchem” came to 3.1. `Oc1cc2c(cc1OCCCc1ccccc1)OCC2`: the IC50 in the series listed under Homo sapiens [1] came to 51 nM. In addition, the logP in “physchem” came to 4.2. For the compound `COCCOc1cc2c(cc1O)CCO2`, in the series listed under Homo sapiens [1], half-maximal inhibition (IC50) required 3200 nM. Besides, the logP in “physchem” is 1.3. For `CC(C)(C)c1c(O)ccc2c1CCO2`, in that order: 730 nM and 3.7. As for `O=C(O)CCCc1cc2c(cc1O)CCO2`, in the series listed under Homo sapiens [2], the IC50 result is given as “Not Active”.

With `Oc1cc2c(cc1Cc1ccccc1)OCC2`, the IC50 in the series filed under Homo sapiens [1] worked out at 280 nM. Besides, the logP in “physchem” stood at 3.9. Turning to `Oc1cc2c(cc1Oc1ccccc1)OCC2`, in the series filed under Homo sapiens [1], the IC50 was 420 nM. The same compound showed a logP in the series “physchem” of 3.7. Taken in the same sequence, the figures for `COC(=O)c1cccc(OCCCOc2cc3c(cc2O)CCO3)c1` were 68 nM and 3.7. Consider `Oc1cc2c(cc1Sc1ccccn1)OCC2`, for which the IC50 in the series listed under Homo sapiens [1] was 2800 nM. The compound further displayed a logP in the series “physchem” of 2.8. Taken in the same sequence, the figures for `OCCc1ccc(OCCCc2cc3c(cc2O)CCO3)cc1` were 340 nM and 3.5. Compound `Oc1cc2c(cc1OCCCOc1ccccc1)OCC2` returned an IC50 in the series listed under Homo sapiens [1] of 320 nM. The compound further came in with a logP in the series “physchem” of 3.4.

In turn, `OCCCc1cc2c(cc1O)CCO2` registered an IC50 in the series listed under Homo sapiens [1] of 10000 nM. The compound also had a logP in “physchem” of 1.4. In the series listed under Homo sapiens [1], `COC(=O)Cc1ccc(OCCCOc2cc3c(cc2O)CCO3)cc1` gave an IC50 of 120 nM. In addition, the logP in “physchem” is 3.1.

As for `CCCc1ccc(OCCCc2cc3c(cc2O)CCO3)cc1`, in the series listed under Homo sapiens [1], the IC50 worked out at 9 nM. In addition, the logP in the series “physchem” was found to be 6. `Oc1cc2c(cc1CCCSc1ccccc1)OCC2` gave an IC50 in the series filed under Homo sapiens [1] of 19 nM. In “physchem”, the logP is 4.9.

`O=C(O)c1cccc(OCCCOc2cc3c(cc2O)CCO3)c1` showed an IC50 in the series listed under Homo sapiens [1] of 5100 nM. `Oc1cc2c(cc1CCCOc1ccc(Cl)cc1)OCC2` had an IC50 in the series filed under Homo sapiens [1] of 55 nM. In the series “physchem”, this compound yielded a log partition coefficient (logP) of 5.1. In turn, `CCCc1cc2c(cc1O)CCO2` had an IC50 in the series listed under Homo sapiens [1] of 290 nM. Moreover, the logP in the series “physchem” amounted to 3.4.

As for `OCCCc1c(O)ccc2c1CCO2`, the IC50 in the series filed under Homo sapiens [1] came to 33000 nM. The compound further returned a logP in the series “physchem” of 1.4. Compound `CCCc1cc2c(c(Br)c1O)CCO2` gave an IC50 in the series filed under Homo sapiens [1] of 65 nM. For the same compound, the logP in the series “physchem” is 4.3.

With `Oc1cc2c(cc1CCCSCc1cccnc1)OCC2`, in the series listed under Homo sapiens [1], the IC50 was found to be 280 nM. The compound also had a logP in the series “physchem” of 3.3. In the series filed under Homo sapiens [1], `CC(C)(C)c1cc2c(cc1O)CCO2` yielded an IC50 of 790 nM. In addition, in “physchem”, the logP was 3.7. In the series filed under Homo sapiens [1], `Oc1cc2c(cc1Sc1ccncc1)OCC2` had an IC50 of 2600 nM. This compound also came in with a logP in the series “physchem” of 2.8. Compound `N#CCCCc1cc2c(cc1O)CCO2` displayed an IC50 in the series filed under Homo sapiens [1] of 1400 nM. Also, the logP in “physchem” was found to be 1.8. `C=CCc1cc2c(c(C)c1O)CCO2` showed an IC50 in the series listed under Homo sapiens [1] of 130 nM. The logP in the series “physchem” is 3.5. In turn, `C=CCc1c(O)ccc2c1CCO2` showed an IC50 in the series filed under Homo sapiens [1] of 2100 nM. In the series “physchem”, this compound had a logP of 2.9. Regarding `Oc1cc2c(cc1Sc1ccccc1)OCC2`, in the series filed under Homo sapiens [1], inhibition was half-maximal at 140 nM (IC50). For the same compound, the logP in the series “physchem” amounted to 4.1. In the case of `Oc1ccc2c(c1CCCSc1ccccc1)CCO2`, in the series filed under Homo sapiens [1], half-maximal inhibition (IC50) was put at 120 nM. For the same compound, in the series “physchem”, the logP was 4.9. The compound `Oc1cc2c(cc1CCCNc1ccccc1)OCC2` registered an IC50 in the series listed under Homo sapiens [1] of 140 nM. In the series “physchem”, this compound registered a logP of 3.8. Turning to `Oc1cc2c(cc1SCc1ccccc1)OCC2`, in the series listed under Homo sapiens [1], the IC50 was 110 nM. This compound gave a logP in the series “physchem” of 4.1. In the case of `Oc1cc2c(cc1SCCc1ccccc1)OCC2`, in the series listed under Homo sapiens [1], the IC50 came out at 66 nM. The logP in “physchem” came to 4.4.

Consider `COC(=O)c1ccccc1OCCCOc1cc2c(cc1O)CCO2`, for which the IC50 in the series listed under Homo sapiens [1] worked out at 47 nM. In addition, in “physchem”, the logP is 3.4. Turning to `O=C(O)Cc1ccc(OCCCOc2cc3c(cc2O)CCO3)cc1`, the IC50 result in the series filed under Homo sapiens [2] is recorded as “Not Active”. Regarding `Oc1ccc2c(c1)CCO2`, the IC50 in the series listed under Homo sapiens [1] was 4000 nM. For the same compound, in “physchem”, the logP is 1.7.

Regarding `OCCc1ccccc1OCCCc1cc2c(cc1O)CCO2`, 290 nM corresponded to half-maximal inhibition in the series filed under Homo sapiens [1] (IC50). Moreover, the logP in “physchem” worked out at 3.5.

For `C=CCc1cc2c(cc1O)CCO2`, in the series listed under Homo sapiens [1], the IC50 is 480 nM. The logP in “physchem” came to 2.9. Turning to `CCCc1cc2c(c(C)c1O)CCO2`, in the series listed under Homo sapiens [1], the IC50 stood at 160 nM. For the same compound, the logP in “physchem” was 4.1. Consider `O=C(O)c1ccccc1OCCCOc1cc2c(cc1O)CCO2`, for which the IC50 entry in the series filed under Homo sapiens [2] is given as “Not Active”. For the compound `O=C1CCN(c2ccccc2)N1` [PHENIDONE], the midpoint of inhibition in the series listed under Homo sapiens [1], the IC50, lay at 8000 nM.

Values taken from ChEMBL document CHEMBL1124454, “2,3-Dihydro-5-benzofuranols as antioxidant-based inhibitors of leukotriene biosynthesis” (J Med Chem, 1989).
